Measured values taken from patent US11639350B2, “Heteroaryldihydropyrimidine derivatives and methods of treating hepatitis B infections” (Janssen Pharmaceutica NV, priority 2018, dated 2023).
Like-named read-outs stand apart in the source and are kept apart here.

What was measured:
HBV = HBV inhibitory activity: HBV DNA in the culture medium of HepG2.2.15 cells by q-PCR; type: cell-based; details: HepG2.2.15 cells, 6 days of compound treatment, HBV DNA in culture medium by q-PCR, highest concentration 10 μM, read-out: EC50
In short: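 HepG2.2.15 cells in 2% FBS medium, 40,000 per well, treated 6 days with compound (medium refreshed once), eight 3-fold dilutions from 10 μM top. HBV DNA extracted from culture medium and quantified by q-PCR; EC50 averaged over repeats. Cytotoxicity run in parallel at 5,000 cells per well, top 100 μM, giving CC50.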

[1] = Cytotoxicity determination in HepG2.2.15 cells (CCK-8); type: cell-based; details: human, 6 days of compound treatment, CCK-8, highest concentration 100 μM
In short: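 HepG2.2.15 cells seeded at 5,000 cells/well in 2% FBS medium, incubated overnight at 37° C., then treated 6 days with compounds (8 points, 3-fold dilutions, top 100 μM), medium refreshed once midway. CCK-8 added for 2.5 h; A450 read against 630 nm reference; CC50 calculated, averaged over repeats.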

[2] = Hepatitis B virus, HepG2.2.15, 144 h

Structure (SMILES) | EC50 (HBV; [2]) [nM] | CC50 at 6 days [1] [nM] | EC50 (HBV) [nM]
CNS(=O)(=O)[C@H]1CC[C@H](C2=C(C(=O)OC)C(c3ccc(F)c(F)c3Cl)N=C(c3c(F)cc(F)cc3F)N2)CC1 (single isomer, unassigned) [Compound 167A, methyl 4-(2-chloro-3,4-difluorophenyl)-6-((trans)-4-(N-methylsulfamoyl)cyclohexyl)-2-(2,4,6-trifluorophenyl)-1,4-dihydropyrimidine-5-carboxylate] | 34 | 11600 | –
COC(=O)C1=C(C2CN(S(=O)(=O)c3ccccc3)C2)NC(c2nccs2)=NC1c1ccc(F)cc1Cl (single isomer, unassigned) [Compound 130A, 6-(1-Benzenesulfonyl-azetidin-3-yl)-4-(2-chloro-4-fluoro-phenyl)-2-thiazol-2-yl-1,4-dihydro-pyrimidine-5-carboxylic acid methyl ester] | 317 | > 10000 | –
COC(=O)C1=C(C2CCN(S(C)(=O)=O)CC2)NC(c2nccs2)=NC1c1ccc(F)cc1Cl (stereo not drawn) [Compound 103, Methyl 4-(2-chloro-4-fluorophenyl)-6-(1-(methylsulfonyl)-piperidin-4-yl)-2-(thiazol-2-yl)-1,4-dihydropyrimidine-5-carboxylate] | 501 | 87000 | –
CCOC(=O)C1=C(C2CCN(S(=O)(=O)C3CC(C(=O)O)C3)CC2)NC(c2nccs2)=NC1c1ccc(F)c(F)c1Br (stereo in doubt) [Compound 199B, (trans)-3-((4-(6-(2-bromo-3,4-difluorophenyl)-5-(ethoxycarbonyl)-2-(thiazol-2-yl)-3,6-dihydropyrimidin-4-yl)piperidin-1-yl)sulfonyl)cyclobutanecarboxylic Acid] | < 4.6 | 14200 | –
COC(=O)C1=C(C2CCN(S(=O)(=O)c3cnn(C4CC4)c3)CC2)NC(c2nccs2)=NC1c1ccc(F)cc1Cl (stereo not drawn) [Compound 254] | 47 | > 100000 | –
COC(=O)C1=C(C2CCN(S(=O)(=O)c3cnn(C)c3)CC2)NC(c2nccs2)=NC1c1ccc(F)cc1Cl (stereo not drawn) [Compound 165, Methyl 4-(2-chloro-4-fluorophenyl)-6-(1-((1-methyl-1H-pyrazol-4-yl)sulfonyl)piperidin-4-yl)-2-(thiazol-2-yl)-1,4-dihydropyrimidine-5-carboxylate] | 12 | > 100000 | –
CCOC(=O)C1=C(C2CCN(S(=O)(=O)C[C@H]3CC[C@H](C(=O)O)CC3)CC2)NC(c2nccs2)=NC1c1ccc(F)c(F)c1Cl (stereo partly drawn) [Compound 424, trans-4-(((4-(6-(2-chloro-3,4-difluorophenyl)-5-(ethoxycarbonyl)-2-(thiazol-2-yl)-3,6-dihydropyrimidin-4-yl)piperidinyl)sulfonyl)methyl)cyclohexane-1-carboxylic Acid] | 7 | 8200 | –
COC(=O)CCS(=O)(=O)N1CCC(C2=C(C(=O)OC)C(c3ccc(F)c(F)c3Cl)N=C(c3nccs3)N2)CC1 (stereo not drawn) [Compound 157A, Methyl 4-(2-chloro-3,4-difluorophenyl)-6-(1-((3-methoxy-3-oxopropyl)sulfonyl)piperidin-4-yl)-2-(thiazol-2-yl)-1,4-dihydropyrimidine-5-carboxylate] | 85 | 80000 | –
COC(=O)C1=C(C2CCC(C(=O)O)C2)NC(c2nccs2)=NC1c1ccc(F)cc1Cl (single isomer, unassigned) [Compound 72C, 3-(6-(2-Chloro-4-fluorophenyl)-5-(methoxycarbonyl)-2-(thiazol-2-yl)-3,6-dihydropyrimidin-4-yl)cyclopentanecarboxylic Acid] | – | 22100 | 475
COC(=O)C1=C(C2CCN(S(=O)(=O)C(F)F)CC2)NC(c2nccs2)=NC1c1ccc(F)c(F)c1Cl (single isomer, unassigned) [Compound 166A, Methyl 4-(2-chloro-3,4-difluorophenyl)-6-(1-((difluoromethyl)sulfonyl)piperidin-4-yl)-2-(thiazol-2-yl)-1,4-dihydropyrimidine-5-carboxylate] | 61 | > 50000 | –
COC(=O)C1=C([C@H]2CC[C@H](N(CC#N)S(C)(=O)=O)CC2)NC(c2nccs2)=NC1c1ccc(F)cc1Cl (single isomer, unassigned) [Compound 448A, (trans)-Methyl 4-(2-chloro-4-fluorophenyl)-6-(4-(N-(cyanomethyl)methylsulfonamido)cyclohexyl)-2-(thiazol-2-yl)-1,4-dihydropyrimidine-5-carboxylate] | 8 | > 100000 | –
COC(=O)C1=C(C2CC3CCC(C2)N3S(C)(=O)=O)NC(c2nccs2)=NC1c1cccc(F)c1Cl (single isomer, unassigned) [Compound 39B, 4-(2-Chloro-3-fluoro-phenyl)-6-(8-methanesulfonyl-8-aza-bicyclo[3.2.1]oct-3-yl)-2-thiazol-2-yl-1,4-dihydro-pyrimidine-5-carboxylic Acid Methyl Ester] | 101 | 30600 | –
CCOC(=O)C1=C(C2CCN(S(=O)(=O)c3cnn(CCCCC(=O)O)c3)CC2)NC(c2nccs2)=NC1c1ccc(F)c(F)c1Cl (stereo not drawn) [Compound 463, 5-(4-((4-(6-(2-Chloro-3,4-difluorophenyl)-5-(ethoxycarbonyl)-2-(thiazol-2-yl)-3,6-dihydropyrimidin-4-yl)piperidin-1-yl)sulfonyl)-1H-pyrazol-1-yl)pentanoic acid] | 31 | 12200 | –
COC(=O)C1=C(C2CC3CCC(C2)N3S(C)(=O)=O)NC(c2nccs2)=NC1c1ccc(F)cc1Cl (single isomer, unassigned) [Compound 38B, 4-(2-Chloro-4-fluoro-phenyl)-6-(8-methanesulfonyl-8-aza-bicyclo[3.2.1]oct-3-yl)-2-thiazol-2-yl-1,4-dihydro-pyrimidine-5-carboxylic Acid Methyl Ester] | 239 | 34100 | –
COC(=O)C1=C(C2CCN(C(=O)CNC(=O)OC(C)(C)C)CC2)NC(c2nccs2)=NC1c1ccc(F)cc1Cl (stereo not drawn) [Compound 129, 6-[1-(2-tert-Butoxycarbonylamino-acetyl)-piperidin-4-yl]-4-(2-chloro-4-fluoro-phenyl)-2-thiazol-2-yl-1,4-dihydro-pyrimidine-5-carboxylic Acid Methyl Ester] | 55 | 28200 | –
COC(=O)C1=C(C2CCN(C(=O)CO)CC2)NC(c2nccs2)=NC1c1ccc(F)cc1Cl (stereo not drawn) [Compound 122, Methyl 4-(2-chloro-4-fluorophenyl)-6-(1-(2-hydroxyacetyl)-piperidin-4-yl)-2-(thiazol-2-yl)-1,4-dihydropyrimidine-5-carboxylate] | 394 | 5100 | –
CCOC(=O)C1=C(C2CCN(S(=O)(=O)[C@H]3C[C@H](C(=O)O)C3)CC2)NC(c2nccs2)=NC1c1ccc(F)cc1Br (stereo partly drawn) [Compound 333B, (trans)-3-((4-(6-(2-bromo-4-fluorophenyl)-5-(ethoxycarbonyl)-2-(thiazol-2-yl)-3,6-dihydropyrimidin-4-yl)piperidin-1-yl)sulfonyl)cyclobutane-1-carboxylic Acid] | 35 | 33100 | –
COC(=O)C1=C(C2CCNC(=O)C2)NC(c2nccs2)=NC1c1ccc(F)cc1Cl (stereo not drawn) [Compound 3, Methyl 4-(2-chloro-4-fluorophenyl)-6-(2-oxopiperidin-4-yl)-2-(thiazol-2-yl)-1,4-dihydro-pyrimidine-5-carboxylate] | 38 | 32800 | –
